The subject of experiment [1] is A. baumannii YQ4. Nature of the experiment: ATP leak assay. The class given is cell-based, Acinetobacter baumannii. The note with it: 16 μg/ml COG1410, 16 μg/ml polymyxin B or 32 μg/ml tigecycline (1× MIC), PBS, 37°C, 30 min. As to the method: ATP leak assay was performed using the Enhanced ATP Assay Kit of Beyotime ([…]) according to the manufacturer's manual. […] The supernatant was harvested and used for the measurement of ATP levels. In total, 100 μl of supernatant was mixed with 100 μl of working solution, and the chemiluminescence was measured by using a Biotek Synergy H1 plate reader. The untreated sample was set as a negative control. The experiments were performed in triplicate.

Experiment [2] deals with Escherichia coli ATCC25922.
The test system of experiment [3] is MDR Enterobacter cloacae 7–86. The note with it: microdilution method in the corresponding broth. Background: Dilution methods test growth across graded concentrations, often in twofold steps.
Experiment [4] deals with MDR Mycobacterium tuberculosis 6–45. The note with it: microdilution method, 7H9 broth.
Experiment [5] has as its system Acinetobacter baumannii ATCC19606.
The subject of experiment [6] is MDR Streptococcus pneumoniae 10–58. As to conditions: microdilution method in the corresponding broth.
Experiment [7] relates to EBSL-producing Klebsiella pneumoniae YQ7. As to conditions: microdilution method in the corresponding broth.
Experiment [8] deals with panel of Gram-positive and Gram-negative strains. Nature of the experiment: MIC on a panel of strains. The class given is cell-based. The note with it: Streptococcus pneumoniae, methicillin-sensitive S. aureus, MRSA, Klebsiella pneumoniae, Pseudomonas aeruginosa.
Description: The antimicrobial activity of COG1410 was determined by measuring the minimal inhibition concentration (MIC) values on a panel of Gram-positive and Gram-negative strains (Table 1).
In experiment [9] the test system is A. baumannii YQ4. Nature of the experiment: transmission electron microscopy (TEM) of treated cells. As to conditions: 1× MIC (16 μg/ml), PBS, 37°C, 30 min.
A further experiment deals with A. baumannii. As to conditions: 1× MIC, PBS, 2 h.
Experiment [10] has as its system PDR Acinetobacter baumannii YQ4. Nature of the experiment: microbe, parasite or virus in culture. The class given is cell-based. As to the method:
(§1) Strain stocks were maintained at −80°C in 10% glycerol. Bacteria were streaked on fresh plates before each experiment. Most of them were cultured in LB broth containing 10 g/L NaCl at 37°C, except for Mycobacteria in 7H9 broth and Enterococcus in BHI broth. Porphyromonas gingivalis was cultured in BHI broth supplemented with 1 μg/ml vitamin k1, 5 μg/ml hemin, and 5 mg/ml L-cysteine hydrochloride at 37°C in the anaerobic chamber. The minimal inhibitory concentrations (MICs) of antimicrobials were determined using the microdilution method in the corresponding broth.
The pandrug-resistant A. baumannii YQ4 was collected from the clinical laboratory of the second hospital in Nanjing. The complete genome was sequenced by Nanopore, and the data were deposited in the GenBank with accession number CP053033.

In experiment [11] the test system is Mycobacterium tuberculosis H37Rv. As to conditions: microdilution method, 7H9 broth.
In experiment [12] the test system is Pseudomonas aeruginosa PAO1. Nature of the experiment: MIC, microdilution method. The class given is cell-based. The note with it: microdilution method in the corresponding broth. As to the method:
as §1

The test system of experiment [13] is Staphylococcus aureus ATCC29213. Nature of the experiment: MIC, microdilution method. The note with it: microdilution method in the corresponding broth. The class given is cell-based. As to the method: as §1
Experiment [14] relates to clinically collected A. baumannii strains. As to the method: as §1
TAble S2. Determination of bactericidal effect of COG1410 against clinically collected A. baumannii strains. MIC was measured in LB broth by microdilution method.

Experiment [15] has as its system MDR Pseudomonas aeruginosa 14–61. The note with it: microdilution method in the corresponding broth.
The test system of experiment [16] is Caenorhabditis elegans (Bristol N2) infected with A. baumannii YQ4. Nature of the experiment: nematode killing assay, C. elegans infection model. As to conditions: 16 μg/ml COG1410 in NGM plate, versus untreated group.

≈ marks a conversion by molar mass, not a printed value. Non-standard residues stand in square brackets, D forms with d. Residues, ends and D or L forms follow the SMILES beside them. Aib = CC(C)(N)C(=O)O Some results are limits rather than exact numbers.

For the molecule `CC(=O)N[C@@H](C)C(=O)N[C@@H](CO)C(=O)NC(C)(C)C(=O)N[C@@H](CC(C)C)C(=O)N[C@@H](CCCNC(=N)N)C(=O)N[C@@H](CCCCN)C(=O)N[C@@H](CC(C)C)C(=O)NC(C)(C)C(=O)N[C@@H](CCCCN)C(=O)N[C@@H](CCCNC(=N)N)C(=O)N[C@@H](CC(C)C)C(=O)N[C@@H](CC(C)C)C(N)=O` [COG1410, acetyl-AS-Aib-LRKL-Aib-KRLL-amide] (Ac-AS[Aib]LRKL[Aib]KRLL-NH2), the “ATP leak (extracellular ATP)” value with A. baumannii YQ4 [1] was “significantly more than untreated control and tigecycline treatment group”. For the same molecule, the MIC in experiment [2] was 64 µg/mL (≈ 45.4 µM); in [3] it was 64 µg/mL (≈ 45.4 µM); in experiment [4] it was 16 µg/mL (≈ 11.4 µM); in experiment [5], 16 µg/mL (≈ 11.4 µM); in experiment [6], >256 µg/mL; in experiment [7] it was >256 µg/mL. The MIC in experiment [10] (PDR YQ4) was 11.3 µM; in [10] (microdilution method, LB broth) it was 16 µg/mL; in experiment [11], 16 µg/mL (≈ 11.4 µM); in experiment [12], >256 µg/mL; in experiment [13] it was >256 µg/mL; in [14] (strain Ab3-1 (MDR-Ab, hydrothorax and ascite), LB broth), 32 µg/mL (≈ 22.7 µM). Also, the MIC in experiment [15] was >256 µg/mL. Moreover, the “antimicrobial activity in words” value in [8] is “inactive”. In addition, the “cell membrane integrity by TEM” value in the experiment with A. baumannii YQ4 [9] is “wrinkled and smaller compared with untreated cells”. Moreover, in the experiment on A. baumannii, the “A. baumannii population killed, in words” value is given as “almost complete elimination”. The “MICs over 107 clinically collected A. baumannii strains” value in experiment [14] (clinically collected strains) is 16 to 32 µg/mL. In addition, in [16], the “survival of infected nematodes” value is recorded as “alleviated the death of infected nematodes but not statistically significantly”.

Source of the values: paper PMC9445589, “Apolipoprotein E mimetic peptide COG1410 combats pandrug-resistant Acinetobacter baumannii” (Frontiers in Microbiology, 2022).
